Test results from patent US20090082285A1, “Adiponectin expression promoter” (SAN-EI GEN F.F.I., INC., priority 2003, published 2009).

Tested on: adiponectin mRNA in epididymis adipose cells
Assay: Adiponectin mRNA level in isolated epididymis adipose cells (RT-PCR, gel densitometry)
Assay type: cell-based, Wistar male rat
Conditions: for mRNA level: adiponectin mRNA, control (DMSO) defined as 1, cultured 24 hours at 37° C.; for adiponectin mRNA level in adipose tissue (result in words): conclusion from FIG. 1 and Table 5, 100 μM or 250 μM vs DMSO control
Method: A Wistar male rat (body weight of 160 g) was sacrificed and its epididymis adipose tissues were excised. The epididymis adipose tissues were placed in 0.5% bovine serum albumin (BSA)/30 mM HEPES/200 nM adenosine/Krebs Ringer bicarbonate buffer(BSA-KRBH) containing 1176 units/mL of collagenase (Sigma, type II), and allowed to stand at 37° C. for 90 minutes (hereunder, 0.5% BSA/30 mM HEPES/200 nM adenosine/Krebs Ringer bicarbonate buffer is referred to as BSA-KRBH). Adipose cells were isolated from the connective tissue by the above-described operation. The isolated adipose cells were then washed with BSA-KRBH four times, and the thus-obtained adipose cells were suspended in a BSA-KRBH culture medium.
Subsequently, to the thus-obtained suspension, a solution prepared by dissolving cyanidin (Cy; manufactured by Funakoshi Co., Ltd.) or cyanidin 3-O-β-D-glucoside (hereinafter, referred to as “cyanidin 3-glucoside”)(C3G; manufactured by Funakoshi Co., Ltd.) in DMSO was added in such a manner that the final concentration of cyanidin or cyanidin 3-glucoside was 100 μM or 250 μM. The resulting solutions were cultured under 5% CO2 at 37° C. for 24 hours, and the adipose cells were then collected.
Total RNAs were extracted from the thus-obtained adipose cell using an RNA extracting reagent (ISOGEN, manufactured by Nippon Gene Co., Ltd.) by following the instruction manual (http://www.nippongene.jp/pages/products/extraction/isogen/genol. html). Using the total RNAs as a template, a reverse transcription reaction was conducted at 37° C. for 120 minutes, and the RNAs were amplified by 20 cycles of PCR (RT-PCR (Reverse transcription-polymerase chain reaction) method). Specifically, 2.5 μg of total RNAs was subjected to reverse transcription in a buffer solution comprising oligo dT primer, 1.3 mM dNTP (deoxynucleoside triphosphates, GIBCO BRL, Grand Island, N.Y.), 10 mM DTT (dithiothreitol, GIBCO BRL), and 200 U of RNase inhibitor (GIBCO BRL) using 200 U of Moloney murine leukemia virus reverse transcriptase (GIBCO BRL) at 37° C. for 120 minutes, then allowed to stand at 94° C. for 2 minutes, and the reaction was terminated. The thus-generated cDNAs were amplified in a 0.01% Tween 20/0.2 mM dNTP/2 mM MgCl2/75 mM Tris buffer (pH 8.8) containing 1 μM 5′-primer([…]) and 3′-primer([…]), using 1.5 U of Taq DNA polymerase (MBI Fermentas, Lithuania) by repeating 20 cycles of PCR (each cycle comprised a denaturation step at 94° C. for 30 seconds, an annealing step. at 58° C. for 30 seconds, and an extension reaction step at 72° C. for 30 seconds), and then allowed to stand at 72° C. for 10 minutes.
The RT-PCR product (502 bp) was applied to a 1% agarose gel with DNA size markers, and subjected to electrophoresis in a Tris-Acetate-EDTA buffer at 100 V for about 30 minutes. After conducting electrophoresis, the gel was dipped in an ethidium bromide solution, shaken for 15 minutes, and then stained. Subsequently, the fluorescence intensity of the gel was measured using a gel analysis program (ATTO Lane Analyzer 10H Software Densitograph provided by Atto Corporation).
Note that, in FIG. 1, the control is epididymis adipose cells to which only DMSO was added.

| SMILES | mRNA level (100 μM) | mRNA level (250 μM) | adiponectin mRNA level in adipose tissue (result in words) |
| --- | --- | --- | --- |
| OCC1OC(Oc2cc3c(O)cc(O)cc3[o+]c2-c2ccc(O)c(O)c2)C(O)C(O)C1O [Cyanidin 3-glucoside, cyanidin 3-O-β-D-glucoside] | 2.7 | 2.1 | increased adiponectin mRNA level |
| Oc1cc(O)c2cc(O)c(-c3ccc(O)c(O)c3)[o+]c2c1 [Cyanidin, cyanidin] | 2.1 | 2.2 | increased adiponectin mRNA level |
